The subject of the assay is RSV strain A2. The assay can be described thus: RSV cell culture EC50 determination (infectious cytopathic cell protection assay in HEp-2 cells). Type of assay: cell-based. The following applies: human respiratory syncytial virus, 96 h; inhibition of RSV-induced cytopathic effect in HEp-2 cells, 4 days, Cell TiterGlo readout. The procedure: RSV Cell Culture EC50 Determination
Antiviral activity against RSV is determined using an infectious cytopathic cell protection assay in HEp-2 cells. In this assay, compounds inhibiting viral infection and/or replication produce a cytoprotective effect against the virus-induced cell killing that can be quantified using a cell viability reagent. The techniques used here are novel adaptations of methods described in published literature (Chapman et al., Antimicrob Agents Chemother. 2007, 51(9):3346-53.)
HEp-2 cells are obtained from ATCC (Manassas, VI) and maintained in MEM media supplemented with 10% fetal bovine serum and penicillin/streptomycin. […]
For antiviral tests, HEp-2 cells are grown in large cell culture flasks to near confluency but not fully so. […] Each compound dilution is transferred in single or quadruplicate samples into dry assay plates, which are stored until assay is ready to go. […]
Subsequently, an infectious mixture is prepared using an appropriate dilution of virus stock previously determined by titration with cells at a density of 50,000/ml and 20 uL/well is added to test plates w/compounds via automation (uFlow, Biotek). […] After the incubation, a cell viability reagent, Cell TiterGlo (Promega, Madison, Wis.) is added to the assay plates, which are incubated briefly, and a luminescent readout is measured (Envision, Perkin Elmer) in all the assay plates. […]
(In general: Cytopathic effects are the visible damage that an infection or toxin causes in cultured cells.)

A value given as a limit tells only on which side of the number the result lay.

For the molecule `Nc1ccn([C@@H]2O[C@@](CO)(CCl)[C@@H](O)[C@H]2Cl)c(=O)n1` [Example 1, 4-amino-1-((2R,3R,4R,5R)-3-chloro-5-(chloromethyl)-4-hydroxy-5-(hydroxymethyl)tetrahydrofuran-2-yl)pyrimidin-2(1H)-one], the EC50 (usually the midpoint of the concentration-response curve) was above 50 µM.

Source of the values: patent US9982006B2, “2′-chloro aminopyrimidinone and pyrimidine dione nucleosides” (Gilead Sciences, Inc., priority 2014, dated 2018).
